Reference: PubChem BioAssay AID179 (DTP/NCI, 2004)
Activity calls are given as the source filed them.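 The calls were made as follows: active = compounds giving half or more protection of infected cells from virus-caused growth loss, again on retest; inactive = the rest.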 Where a SMILES comes first, the peptide text is derived from it.

Test system: CEM cells HIV-1 protection, formazan growth assay
Assay: NCI AIDS Antiviral Assay
Conditions: for IC50: measured here: growth of uninfected CEM cells
Summary of the method: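 Protection of CEM cells against HIV-1 was scored from cell growth (soluble formazan) across five concentrations, with parallel uninfected cells. Lack of protection may reflect toxicity.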

Structure (SMILES)	outcome	EC50 [µM]	IC50 [µM]
Cn1c(=O)nc2n(-c3ccc(Cl)cc3)c(-c3ccccc3)c(-c3ccccc3)nc-2c1=O	inactive		
CC(=O)O[C@H]1CC[C@H]2[C@@H]3CCC4=C/C(=N/OCCN(C)C)CC[C@]4(C)[C@H]3CC[C@]12C		> 200	0.955
CC(=O)[CH-]C(C)=O.CC(=O)[CH-]C(C)=O.[CH2-]CCCCCCC.[CH2-]CCCCCCC.[Sn+4]		> 47.9	> 47.9
Cc1ccc(S(=O)(=O)N/N=C/C2(c3ccccc3)c3ccccc3-c3ccccc32)cc1		> 200	11.2
Cc1c2c(oc(=O)c1NC(=O)c1ccccc1)CCCCCC2		> 200	> 200
Oc1ccc(Cl)cc1CN1CCN(Cc2cc(Cl)ccc2O)C1		> 200	1.38
O=C1OC(=O)C2C1C(c1ccccc1)N1C3C(=O)OC(=O)C3C(c3ccccc3)N21 (stereo not given)	inactive		
Nc1cc(Cl)ccc1N1C(=O)C=CC1=O	inactive		
CCN(CC)C(=S)N/N=C(/c1ccccc1)c1ccccn1		> 200	1.51
C[n+]1c2ccccc2c(NC(CS)C(=O)O)c2ccccc21 (stereo not given)	inactive		
CN(C)P1(=O)OCC2CCC[C@@H]2O1 (stereo not given in full)	inactive		
CCOC(=O)/C=C1/Nc2cc(Cl)c(Cl)cc2NC1=O		> 9.12	> 9.12
Cc1cccc(C(=O)c2cccc3ccccc23)c1C(=O)O	inactive		
O=C(NN1C(=O)C(Cl)C1c1cccc(Cl)c1)c1ccccc1O (stereo not given)		> 74.1	> 74.1
COC1(OC)CC(CO)(CNc2cc(Cl)nc(N)n2)C1		> 200	> 200
COC(=O)C1CC(=O)N(C)c2sc(C)c(C)c2C1=O (stereo not given)		> 282	112
C=C[Si](C)(C)COC(=O)/C(C#N)=C/C=C/c1ccccc1		> 9.12	> 9.12
O=C1NC2=C(CCCC/C2=N\O)C12CCCCC2	inactive		
CCN(CC)C(=O)Oc1c(Br)ccc2cc(C)cc(OC)c12		> 200	> 200
CCOC(=O)c1sc2c(c1OC(=O)c1ccco1)c(=O)n(-c1ccccc1)c(=S)n2-c1ccccc1		> 200	8.32
CCCCCCCCCCCCCCCCCCOC(CO)COP(=O)(O)OCC1OC(n2cc(C)c(=O)[nH]c2=O)CC1F (stereo not given)		0.00155	2
COc1c(NC(C)=O)cc(C)cc1NC(C)=O	inactive		

Structure (SMILES)	outcome	EC50 [µM]	IC50 [µM]
NC(N)=NS(=O)(=O)c1ccc(NNc2c3ccccc3nc3c(C(=O)Nc4ccc(S(=O)(=O)N=C(N)N)cc4)cccc23)cc1		> 200	33.1
COc1cc(C)cc2c1OC(c1ccccc1)CC2=O (stereo not given)		> 200	52.5
C=CCC1C(=O)C(C(=O)OC)N2CCc3c([nH]c4ccccc34)C12 (stereo not given)		> 282	138
CC(CCCC1SCC2NC(=O)NC21)C(=O)O (stereo not given)		> 977	> 977
CC(C)CC(NC(=O)C(Cc1ccc(O)cc1)NC(=O)C(CO)NC(=O)C(C)NC(=O)C(CCCN=C(N)N)NC(=O)C(CCC(N)=O)NC(=O)C(NC(=O)C(N)CCC(=O)O)C(C)C)C(=O)NC(CO)C(=O)NC(CCCCN)C(=O)O (stereo not given) (H-EVQRASYLSK-OH; configuration not given here)	inactive		
NC(C(=O)O)C(O)C(=O)O (stereo not given)	inactive		
COc1ccc(/C=N/NS(=O)(=O)c2ccc(/C=C3\NC(=O)NC3=O)cc2)cc1		> 200	> 200
O=[N+]([O-])c1ccc(N=C/C=C/Nc2ccc([N+](=O)[O-])cc2)cc1		> 200	52.5
CC(C)CC1[C@@H](OCc2ccccc2)COS(=O)(=O)N1Cc1ccccc1 (stereo not given in full)		> 200	77.6
Cn1c(=O)c2c(nc3sc4ccccc4c(=O)n32)n(C)c1=O		> 151	> 151
CC1=C(C(=O)Nc2cccc(Cl)c2)C(c2ccccc2O)C(C(=O)Nc2cccc(Cl)c2)=C(C)N1		> 50.1	12
CCOC(=O)C(NC(=O)c1cccc(Cl)c1)(N1CCN(c2cc3c(cc2F)c(=O)c(C(=O)O)cn3C2CC2)CC1)C(F)(F)F (stereo not given)		> 20	10.2
Cc1ccc(S(=O)(=O)N/N=c2/sc3ccccc3n2C)cc1		> 200	> 200
CN(C)CCC(=O)C(=Cc1ccc(O)cc1)C(=O)CCN(C)C		> 646	43.7
C#C[C@@]1(O)CCCC2=CC(=O)C[C@]21C	inactive		
O=[N+]([O-])c1cccc(-c2csc(NNC3=NC/C(=C/c4ccc5c(c4)OCO5)S3)n2)c1		> 200	117
Cc1cc(=O)[nH]c(NN2C(Cl)C(=O)C2c2cccc(O)c2)n1 (stereo not given)		> 295	1.86
NC1CCCCC1NCCNC1CCCCC1N (stereo not given)		> 200	178
CCN(CC)CCCNc1c2cc(OC)ccc2nc2cccc([N+](=O)[O-])c12		> 2	0.0407
Cc1cc(OCC(O)CO)ccc1-c1ccccc1 (stereo not given)		> 977	295
O=S(=O)(O)O		> 263	40.7
O=c1[nH]nc(-c2ccccc2)n1/N=C/c1ccccc1O		> 200	115

Structure (SMILES)	outcome	EC50 [µM]	IC50 [µM]
Cc1ccc(NC(=O)CSc2nnc(Cc3ccccc3)o2)c(C)c1		> 141	135
COC(=O)C(Cc1ccccc1)NS(=O)(=O)c1ccc(-c2c3nc(c(-c4ccc(S(=O)(=O)NC(Cc5ccccc5)C(=O)OC)cc4)c4ccc([nH]4)c(-c4ccc(S(=O)(=O)NC(Cc5ccccc5)C(=O)OC)cc4)c4nc(c(-c5ccc(S(=O)(=O)NC(Cc6ccccc6)C(=O)OC)cc5)c5ccc2[nH]5)C=C4)C=C3)cc1 (stereo not given)		> 126	> 126
N#Cc1c(NCCc2ccc(F)cc2)c2ccccc2n2c1nc1ccccc12		11	> 200
Cc1[nH]c2ccccc2c1C1Cc2ccccc2N1C(=O)/C=C\C(=O)O (stereo not given)		> 724	41.7
[Ni+2].[O-]/C(=N\N=C/c1ccc(C(F)(F)F)cc1)c1ccncc1.[O-]/C(=N\N=C\c1ccc(C(F)(F)F)cc1)c1ccncc1		> 100	16.6
O=c1[nH]c(N2CCOCC2)nc2cc3ccccc3cc12		> 155	> 155
CCc1cccc(CC)c1NC1=CC(=O)C(=O)c2ccccc21		> 23.4	> 23.4
COc1ccccc1NC(=S)N/N=C/c1cccc(C)n1		> 200	2.75
Cc1ccc2c(c1)SCc1c-2[nH]c2ccccc12	inactive		
c1ccc(COC2C3COC(O3)C(OCc3ccccc3)C2OCc2ccccc2)cc1 (stereo not given)		> 200	15.1
CCOP(=O)(OCC)C1CC(n2cc(C)c(=O)[nH]c2=O)OC1CO (stereo not given)		> 200	182
CC(Cc1ccccc1)Nc1ncnc2c1ncn2C1OC(CO)CC1O (stereo not given)	inactive		
Nc1nc2c(-c3ccc([N+](=O)[O-])cc3)nnn2c2ccccc12		> 4.68	> 4.68
CC1(c2ccccc2Cl)C(C#N)C(=O)NC(=O)C1C#N (stereo not given)		> 91.2	46.8
CCCCCCCCCCCCCCCCCCOC(COP(=O)(O)OCC1OC(n2cc(F)c(=O)[nH]c2=O)CC1O)COP(=O)(O)OCC1OC(n2cc(C)c(=O)[nH]c2=O)CC1N=[N+]=[N-] (stereo not given)		> 5.75	0.0501
O=C(CCc1nnc2s/c(=C\c3ccc4c(c3)OCO4)c(=O)n12)Nc1cc(Cl)ccc1Cl		72.4	513
COC(CNC(=O)C(C)NC(=O)CCc1ccccc1)OC (stereo not given)	inactive		
CCCC1=NC(C(F)(F)F)(C(F)(F)F)N=C(N2CCOCC2)O1		> 200	> 200
CC(Oc1ccc(OCC2CCCCC2)cc1)C(=O)N(CCO)CCO (stereo not given)		> 692	44.7
COCOC1/C=C/CCCCC2=C(C)C=C(C1)O2 (stereo not given)		> 141	132
Cc1nc(Nc2ccc([N+](=O)[O-])cc2)sc1C(=O)/C=C/c1ccc(N(C)C)cc1		> 33.1	18.6
O=S(=O)(O)c1cc(N=Nc2ccc(S(=O)(=O)c3ccc(N=Nc4cc(S(=O)(=O)O)c5cccnc5c4O)cc3)cc2)c(O)c2ncccc12		6.03	39.8

Structure (SMILES)	outcome	EC50 [µM]	IC50 [µM]
CCOP(=O)(OCC)C(C)(C)OC(=O)NC#N		> 200	> 200
COC(=O)C1=C(C(=O)OC)N(C(C)C)[C@H]2C(C(=O)OC)=C(C(=O)OC)N(C(C)C)[C@@H]12		> 2.45	> 2.45
CN1CCN(c2c(Cl)cc(Cl)c3[nH]c4ccccc4c(=O)c23)CC1		> 2	0.977
N#C/C(=C\c1cc(Cl)cc(Cl)c1O)c1ccc([N+](=O)[O-])cc1		> 100	14.1
CCN(CC)CCc1nc(-c2ccccc2)no1		> 200	27.5
CC(=O)CC(=O)N1CCOC1=O		> 200	36.3
CC(C)=CCC1=C(O)C(CC=C(C)C)(CC=C(C)C)C(=O)C(C(=O)C(C)C)=C1O		> 33.9	7.08
C/C=C1\CNC1C(=O)O (stereo not given)		> 200	> 200
O=C1c2cccc3cc([N+](=O)[O-])cc(c23)C(=O)N1CCc1ccccn1		> 200	4.37
NNC(=O)c1ccc(OCc2nc3ccccc3[nH]2)cc1		> 200	67.6
CCOC(=O)NC(Nc1ccc(Cl)cn1)(C(F)(F)F)C(F)(F)F		> 200	> 200
Cc1cc(C)c2c(c1)C/C(=C\c1cccc(C)c1C(=O)O)C2=O		> 200	129
CN(C)CCNC(=O)c1cccc2c1Oc1c(cccc1[N+](=O)[O-])O2		> 20	0.245
COc1ccc(/C=C/CO)cc1OC	inactive		
CC1(C)OC(=O)C(=C=[N-])/C1=C\[n+]1ccccc1		> 417	> 417
COc1ccc2cc(-c3ccc(OC)c(OC)c3)c(=O)oc2c1		> 200	> 200
CCOP(=O)(OCC)C1CCCCOC1=O (stereo not given)	inactive		
COC(OC)(c1ccccc1)C(I)I	inactive		
NS(=O)(=O)c1ccc(N=NC2Sc3nc4ccccc4n3C2=O)cc1 (stereo not given)	inactive		
CCNc1nnc(-c2ccccc2Nc2ccccc2-c2nnc(NCC)s2)s1		> 200	16.2
COc1ccc2nc3ccccc3c(NCCCCCN(C)CCCl)c2c1	inactive		
